The values below come from PubChem BioAssay AID1996.

Converted amounts (≈) assume the structure as drawn.

The conditions of this data set: buffer; pH 7.4; 200.0 µM.
With `O=C(NC1CC2CCC1C2)c1ccco1` (configuration not stated), the solubility (kinetic) (usually solubility judged after dilution from a stock solution rather than from solid) was determined as 26.3 µg/mL (≈ 128 µM).
For `O=C(/C=C/c1ccco1)NCc1ccco1` the value was greater than 32.6 µg/mL.
The molecule `O=C(Nc1cccc(Cl)c1)C1COc2ccccc2O1` (configuration not stated) had a kinetic solubility of 3.1 µg/mL (≈ 10.7 µM).
For `COc1ccccc1NC(=O)O/N=C(\N)c1ccccc1` the value was greater than 42.8 µg/mL; for `O=S(=O)(c1ccccc1)N1CCN2CCCC2C1` (configuration not stated), greater than 40 µg/mL.
Consider `CCOc1ccc(C(=O)NCc2ccc3c(c2)OCO3)cc1OCC`, for which the kinetic solubility was determined as 1.2 µg/mL (≈ 3.49 µM).
As to `O=C(CCS(=O)(=O)c1ccccc1)Nc1ccccn1`, the kinetic solubility was greater than 43.6 µg/mL.
Consider `CNC(=O)COc1ccc(Nc2nnc(C)c3ccccc23)cc1.Cl`, for which the kinetic solubility is greater than 53.8 µg/mL.
Turning to `Cc1ccc(C(=O)NCc2ccc3c(c2)OCO3)cc1Cl`, the solubility (kinetic) is less than 0.7 µg/mL.
`CCOc1ccccc1NS(=O)(=O)c1cn(C)c(=O)n(C)c1=O` had a solubility (kinetic) of 34.4 µg/mL (≈ 101 µM).
For `Cc1nc2ccccn2c1C(=O)C(=O)Nc1cc(F)ccc1F` the value was 4 µg/mL (≈ 12.7 µM); for `CC(=O)Nc1ccc(Sc2ccccc2C(=O)O)cn1`, greater than 43.2 µg/mL.
In the case of `C/C(N)=C(/C#N)C(=O)COC(=O)Cc1coc2cc(C)ccc12`, the solubility (kinetic) is 10.2 µg/mL (≈ 32.7 µM).
For `Cc1csc(NC(=O)Cc2ccccc2Cl)n1` the value was 34.4 µg/mL (≈ 129 µM).
Consider `COc1ccccc1C(=O)NS(=O)(=O)c1ccc(C)cc1`, for which the solubility (kinetic) is greater than 45.8 µg/mL.
To `COc1ccc(CNc2nccs2)cc1` belongs 19.5 µg/mL (≈ 88.5 µM).
To `O=C1OCC(c2ccccc2)=C1c1ccccc1[N+](=O)[O-]` belongs greater than 42.2 µg/mL; to `CC(=O)c1cccc(NC(=O)c2cc(=O)[nH]c3ccccc23)c1`, 12.5 µg/mL (≈ 40.8 µM); to `Cc1cc(C)c(C#N)c(SCC(=O)Nc2cc(C)on2)n1`, 2.1 µg/mL (≈ 6.95 µM).
To `COc1ccc([N+](=O)[O-])cc1N1C(=O)c2cccnc2C1=O` belongs greater than 44.9 µg/mL; to `Cc1ccc(CN2CCN(CC(=O)NCc3ccccc3)CC2)cc1`, 2.2 µg/mL (≈ 6.52 µM).
For the molecule `O=C(CNC(=O)[C@@H]1Cc2ccccc2CN1)NC1CCCCC1`, the solubility (kinetic) is greater than 47.3 µg/mL.
To `CCN(CC)CCNS(=O)(=O)c1ccc(/C=C/C(=O)O)cc1` belongs 41 µg/mL (≈ 126 µM).
To `Cc1nc2cc(Cl)ccc2c(=O)n1Cc1ccncc1` belongs greater than 42.9 µg/mL; to `CCOC(=O)/C=C1\SCC(=O)N1CC(=O)N1CCOCC1`, greater than 47.2 µg/mL; to `O=C(COC(=O)/C=C/c1ccccc1)NC1CC1`, greater than 36.8 µg/mL.
To `O=C(COc1ccccc1)N1CCN(c2ncccn2)CC1` belongs greater than 44.8 µg/mL.
The molecule `CSc1ncccc1C(=O)OCC(=O)NC12CC3CC(CC(C3)C1)C2` returned a kinetic solubility of 21.8 µg/mL (≈ 60.5 µM).
In turn, `CC(NC(=O)c1cc(Br)cs1)C1CCCO1` (configuration not stated) yielded a kinetic solubility greater than 45.6 µg/mL.
For `CC(C)Sc1nc(SCC(=O)O)c2c3c(sc2n1)COC(C)(C)C3` the value was 56.9 µg/mL (≈ 148 µM); for `CC(c1ccccc1)N1C(=O)/C(=C/c2ccncc2)SC1=S` (configuration not stated), 1.3 µg/mL (≈ 3.98 µM); for `CC(C)(C)NC(=O)NC(=O)CN1CCCCC1`, greater than 36.2 µg/mL.
For `COCCNC(=O)c1cc2c(=O)[nH]c3ccccc3c2s1` the value was 3.2 µg/mL (≈ 10.6 µM); for `Cc1cccc(NC(=O)CN(C)C(=O)C2CC2)c1C`, greater than 39.1 µg/mL; for `O=C(NC1CCCN(CCc2ccccc2)C1)c1c(F)cccc1F` (configuration not stated), greater than 51.7 µg/mL.
With `CC1(c2ccc(Cl)cc2)NC(=O)N(CN2CCOCC2)C1=O` (configuration not stated), the kinetic solubility was greater than 48.6 µg/mL.
As for `NS(=O)(=O)c1cccc(NC(=O)COC(=O)c2ccccc2SCC(=O)N2CCCC2)c1`, the solubility (kinetic) was greater than 71.6 µg/mL.
`CC(=O)c1c(OC(=O)c2cccc(Cl)c2)c2ccccc2n1C` came in with a kinetic solubility of less than 0.7 µg/mL.
For `COc1ccc(-c2noc(=O)n2Cc2ccccc2F)cc1` the value was 29.6 µg/mL (≈ 98.6 µM); for `COc1ccccc1N1C(=O)CC(=O)NC1=O`, greater than 35.1 µg/mL.
To `Cc1cc(Oc2ncccc2[N+](=O)[O-])c2cc(Cl)ccc2n1` belongs less than 0.2 µg/mL.
`CSc1ccc(/C=C/C(=O)NC(=O)c2ccccc2O)cc1` came in with a kinetic solubility of 3.9 µg/mL (≈ 12.4 µM).
Turning to `Cc1cccc(C)c1OCC1CNC(=O)O1` (configuration not stated), the solubility (kinetic) amounted to 24.8 µg/mL (≈ 112 µM).
In turn, `O=C(COc1ccc(Cl)cc1)NCc1ccncc1` registered a solubility (kinetic) greater than 41.5 µg/mL.
In the case of `NC(=O)C1CCN(C(=O)/C(=C/c2ccccc2)NC(=O)c2ccccc2)CC1`, the solubility (kinetic) came out at 53.7 µg/mL (≈ 142 µM).
For `OCCSc1nc(N2CCOCC2)nc(N2CCOCC2)n1` the value was greater than 49.1 µg/mL.
Molecule `CN(C)CCOC1c2ccccc2CSc2ccccc21.O=CO` (configuration not stated) had a kinetic solubility of 46.7 µg/mL.
The molecule `O=C(Cn1c(CO)nc2ccccc21)Nc1ccc2c(c1)OCCCO2` gave a kinetic solubility greater than 53 µg/mL.
To `Cc1cc(=O)oc2cc(OCC(=O)NCC3CCC(C(=O)O)CC3)ccc12` (configuration not stated) belongs greater than 56 µg/mL; to `O=C(NCCCNC(=O)c1cnccn1)c1cccc(Cl)c1`, 47.1 µg/mL (≈ 148 µM).
For `COc1ccccc1NC(=O)Nc1cccc(NC(C)=O)c1` the value was 34.2 µg/mL (≈ 114 µM).
`CCN(CC)C(=O)Cn1cc(/C=C(\C#N)C(=O)NC2CC2)c2ccccc21` displayed a kinetic solubility of 43 µg/mL (≈ 118 µM).
